Data on seven molecules can be found in patent US20250230193A1, “CYCLIC COMPOUND HAVING SELECTIVE KRAS INHIBITORY EFFECT ON HRAS AND NRAS” (CHUGAI SEIYAKU KABUSHIKI KAISHA, priority 2022, published 2025).

Where a SMILES comes first, the peptide text is derived from it. Bridges are numbered along the chain shown (N, C = ends). [ ]: non-standard residue; d: D form. The star is where a group is joined. hPhe(3-Cl-4-CF3) = N[C@@H](CCc1ccc(C(F)(F)F)c(Cl)c1)C(=O)O; NPrPhe(4-CF3) = CCCN[C@@H](Cc1ccc(C(F)(F)F)cc1)C(=O)O; NMeGly(cPent) = CN[C@H](C(=O)O)C1CCCC1; Hyp = O=C(O)[C@@H]1C[C@@H](O)CN1; NMeD = CN[C@@H](CC(=O)O)C(=O)O; NMeL = CN[C@@H](CC(C)C)C(=O)O; Morpholide = C1CN(*)CCO1; NMeA = CN[C@@H](C)C(=O)O; Aze = O=C(O)[C@@H]1CCN1; Ac4c = NC1(C(=O)O)CCC1; Sar = CNCC(=O)O

The target of test [1] is GDP-bound HRAS wild-type protein (Homo sapiens, UniProt P01112). Briefly: Binding to HRAS by surface plasmon resonance (SPR), Single Cycle Kinetics. Particulars: for HRAS/KRAS (ratio of KD value with respect to GDP-bound HRAS wild-type protein to KD value with respect to KRAS): class symbols.
Chain of GDP-bound HRAS wild-type protein (P01112 whole entry): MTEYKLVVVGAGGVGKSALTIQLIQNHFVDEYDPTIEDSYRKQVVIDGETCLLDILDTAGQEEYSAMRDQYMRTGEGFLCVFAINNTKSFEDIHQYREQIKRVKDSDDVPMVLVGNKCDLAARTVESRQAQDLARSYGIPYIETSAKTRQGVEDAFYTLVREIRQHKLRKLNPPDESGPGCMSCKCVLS
Test [2] concerns the target GDP-bound NRAS wild-type protein (Homo sapiens, UniProt P01111). Briefly: Binding to NRAS by surface plasmon resonance (SPR), Single Cycle Kinetics. The following applies: for NRAS/KRAS (ratio of KD value with respect to GDP-bound NRAS wild-type protein to KD value with respect to KRAS): class symbols. In general terms: SPR reads the build-up and loss of mass on a sensor chip optically.

Where [3] appears, read: SPR, GDP-bound HRAS wild-type vs GDP-bound KRAS wild-type.
[4] abbreviates: SPR, GDP-bound NRAS wild-type vs GDP-bound KRAS wild-type.
Setting [5] is: KD ratio, GDP-bound HRAS wild-type vs GDP-bound KRAS wild-type, SPR.
Setting [6] is: KD ratio, GDP-bound NRAS wild-type vs GDP-bound KRAS wild-type, SPR.

Chain of GDP-bound NRAS wild-type protein (P01111 whole entry): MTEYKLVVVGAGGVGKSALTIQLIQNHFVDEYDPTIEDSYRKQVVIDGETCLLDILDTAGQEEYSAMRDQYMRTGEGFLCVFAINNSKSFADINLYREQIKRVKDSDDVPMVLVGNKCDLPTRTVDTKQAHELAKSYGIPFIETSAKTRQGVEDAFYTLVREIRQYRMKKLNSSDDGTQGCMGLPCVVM

On to `CCCN1C(=O)[C@@H]2CCN2C(=O)[C@H](C)N(C)C(=O)[C@H]([C@@H](C)CC)NC(=O)[C@H](CC(C)C)N(C)C(=O)C[C@@H](C(=O)N2CCOCC2)N(C)C(=O)[C@H](C2CCCC2)N(C)C(=O)C2(CCC2)NC(=O)[C@@H]2C[C@@H](OCC)CN2C(=O)[C@H](CCc2ccc(C(F)(F)F)c(Cl)c2)NC(=O)CN(C)C(=O)[C@@H]1Cc1ccc(C(F)(F)F)cc1` [PP0406] ([NMeL]I[NMeA][Aze][NPrPhe(4-CF3)][Sar][hPhe(3-Cl-4-CF3)][Hyp](Et)[Ac4c][NMeGly(cPent)][NMeD]-Morpholide; lactam N-11), for which, in test [1] (KD ratio HRAS/KRAS, SPR), the “HRAS/KRAS (ratio of KD for GDP-bound HRAS wild-type to KD for KRAS)” value is “B (a compound having 3 or more and less than 10 is denoted as B)”. The “NRAS/KRAS (ratio of KD for GDP-bound NRAS wild-type to KD for KRAS)” value in test [2] (KD ratio NRAS/KRAS, SPR) is “C (A compound having a KD ratio of 0.1 or more and less than 3 is denoted as C)”.

In the case of `CCC[C@H]1C(=O)N[C@@H]([C@@H](C)CC)C(=O)N(C)CC(=O)N(C)[C@H]2C/C=C\CCN(C2=O)[C@@H](Cc2ccc(C)cc2)C(=O)N(C)CC(=O)N[C@@H](CCc2ccc(Cl)c(Cl)c2)C(=O)N2CCCCC[C@H]2C(=O)NC2(CC(C)(C)C2)C(=O)N(C)[C@@H](C(CC)CC)C(=O)N(C)[C@H](C(=O)N(C)C)CC(=O)N1C` [PP2962], the “HRAS/KRAS (ratio of KD value with respect to GDP-bound HRAS wild-type protein to KD value with respect to KRAS)” value in test [1] (KD ratio HRAS/KRAS) is “A (a compound having 10 or more and less than 20 is denoted as A)”. The “NRAS/KRAS (ratio of KD value with respect to GDP-bound NRAS wild-type protein to KD value with respect to KRAS)” value in test [2] (KD ratio NRAS/KRAS) was “AA (a compound having 20 or more is denoted as AA)”.

Consider `CCOC[C@H]1C(=O)N[C@@H]([C@@H](C)CC)C(=O)N(C)CC(=O)N(C)[C@H]2C/C=C\CCN(C2=O)[C@@H](Cc2ccc(C)cc2)C(=O)N(C)CC(=O)N[C@@H](CCc2cc(F)c(C(F)(F)F)c(F)c2)C(=O)N2C[C@@H](C)C[C@H]2C(=O)NC2(CC(C)(C)C2)C(=O)N(C)[C@@H](C2CCCC2)C(=O)N(C)[C@H](C(=O)N(C)C)CC(=O)N1C` [PP2439], for which, in test [1] (setting [3]), the “HRAS/KRAS (ratio of KD value with respect to HRAS to KD value with respect to KRAS)” value is “A (a compound having 10 or more and less than 20 is denoted as A)”. Also, the “NRAS/KRAS (ratio of KD value with respect to NRAS to KD value with respect to KRAS)” value in test [2] (setting [4]) was “A (a compound having 10 or more and less than 20 is denoted as A)”.

As to `CC[C@H](C)[C@@H]1NC(=O)[C@H](COC)N(C)C(=O)C[C@@H](C(=O)N2CCOCC2)N(C)C(=O)[C@H](C2CCCC2)N(C)C(=O)C2(CCC2)NC(=O)[C@@H]2CCN2C(=O)[C@H](CCc2cc(F)c(C(F)(F)F)c(F)c2)NC(=O)CN(C)C(=O)[C@H](Cc2ccc(C(F)(F)F)cc2)N2CCCCC[C@@H](C2=O)N(C)C(=O)CN(C)C1=O` [PP0840], the “HRAS/KRAS (ratio of KD value with respect to HRAS to KD value with respect to KRAS)” value in test [1] (setting [5]) is “B (a compound having 3 or more and less than 10 is denoted as B)”. Also, in test [2] (setting [6]), the “NRAS/KRAS (ratio of KD value with respect to NRAS to KD value with respect to KRAS)” value is “B (a compound having 3 or more and less than 10 is denoted as B)”.

For the molecule `CC[C@H](C)[C@@H]1NC(=O)[C@H](CC2CC2)N(C)C(=O)C[C@@H](C(=O)N(C)C)N(C)C(=O)[C@H](C2CCCC2)N(C)C(=O)C2(CC(C)(C)C2)NC(=O)[C@@H]2C[C@@H](C)CN2C(=O)[C@H](CCc2ccc(C(F)(F)F)c(OC)c2)NC(=O)CN(C)C(=O)[C@H](Cc2ccc(C)cc2)N2CC/C=C\C[C@@H](C2=O)N(C)C(=O)CN(C)C1=O` [PP1901], in test [1] (setting [5]), the “HRAS/KRAS (ratio of KD value for HRAS to KD value for KRAS)” value is “B (a compound having 3 or more and less than 10 is denoted as B)”. The “NRAS/KRAS (ratio of KD value for NRAS to KD value for KRAS)” value in test [2] (setting [6]) is “A (a compound having 10 or more and less than 20 is denoted as A)”.

`C=CCN1CC(=O)N(C)[C@H]2C/C=C\CCN(C2=O)[C@@H](Cc2ccc(C)cc2)C(=O)N(C)CC(=O)N[C@@H](CCc2cc(F)c(C(F)(F)F)c(F)c2)C(=O)N2C[C@H](OCC)C[C@H]2C(=O)NC2(CC(C)(C)C2)C(=O)N(C)[C@@H](C2CCCC2)C(=O)N(C)[C@H](C(=O)N(C)C)CC(=O)N(C)[C@@H](CCC)C(=O)N[C@@H]([C@@H](C)CC)C1=O` [PP2094]: the “HRAS/KRAS (ratio of KD value with respect to HRAS to KD value with respect to KRAS)” value in test [1] (setting [3]) was “A (a compound having 10 or more and less than 20 is denoted as A)”. For the same molecule, the “NRAS/KRAS (ratio of KD value with respect to NRAS to KD value with respect to KRAS)” value in test [2] (setting [4]) is “A (a compound having 10 or more and less than 20 is denoted as A)”.

As for `CCO[C@@H]1C[C@H]2C(=O)NC3(CC(C)(C)C3)C(=O)N(C)[C@@H](C(CC)CC)C(=O)N(C)[C@H](C(=O)N3CCCC3)CC(=O)N(C)[C@H]3CCC/C=C/c4ccc(cc4)C[C@@H](C(=O)N(C)CC(=O)N[C@@H](CCc4ccc(Cl)c(Cl)c4)C(=O)N2C1)N1CC/C=C\C[C@@H](C1=O)N(C)C(=O)CN(C)C(=O)[C@H]([C@@H](C)CC)NC3=O` [PP2581], in test [1] (KD ratio HRAS/KRAS), the “HRAS/KRAS (ratio of KD value with respect to GDP-bound HRAS wild-type protein to KD value with respect to KRAS)” value is “A (a compound having 10 or more and less than 20 is denoted as A)”. Besides, the “NRAS/KRAS (ratio of KD value with respect to GDP-bound NRAS wild-type protein to KD value with respect to KRAS)” value in test [2] (KD ratio NRAS/KRAS) is listed as “AA (a compound having 20 or more is denoted as AA)”.
